Data as given in ChEMBL document CHEMBL3526102, “Biotransformation of two β-secretase inhibitors including ring opening and contraction of a pyrimidine ring” (Drug Metab Dispos, 2013).

Columns and labels:
[1] = test system: Hepatocyte; assay: Drug level in Sprague-Dawley rat hepatocytes treated with [14C]-AZD3839 at 5 uM after 120 mins by LC-MS analysis; assay type: ADME, cell-based; conditions: 2 h
[2] = test system: Hepatocyte; assay: Drug level in human hepatocytes treated with [14C]-AZD3839 at 5 uM after 120 mins by LC-MS analysis; assay type: ADME, cell-based; conditions: 2 h
[3] = test system: Liver microsome; assay: Drug level in Sprague-Dawley rat liver microsomes treated with (S)-1-pyridin-4-yl-4-fluoro-1-(3-(pyrimidin-5-yl)phenyl)-1H-isoindol-3-amine at 1 uM after 30 mins by LC-MS analysis; assay type: ADME; conditions: 0.5 h
[4] = target: Cytochrome P450 3A4 (Homo sapiens, UniProt P08684); assay: Activity of human recombinant CYP3A4 expressed in insect BTI-TN-5B1-4 cell microsomes assessed as enzyme-mediated drug metabolism treated with (S)-1-pyridin-4-yl-4-fluoro-1-(3-(pyrimidin-5-yl)phenyl)-1H-isoindol-3-amine at 2 uM after 30 mins; assay type: ADME; conditions: bti-tn-5b1-4, 0.5 h
[5] = test system: Liver microsome; assay: Drug level in human liver microsomes treated with (S)-1-pyridin-4-yl-4-fluoro-1-(3-(pyrimidin-5-yl)phenyl)-1H-isoindol-3-amine at 1 uM after 30 mins by LC-MS analysis; assay type: ADME; conditions: 0.5 h
[6] = test system: Plasma; assay: Drug level in bile duct-cannulated Sprague-Dawley rat plasma treated with (S)-1-pyridin-4-yl-4-fluoro-1-(3-(pyrimidin-5-yl)phenyl)-1H-isoindol-3-amine at 30 umol/kg, iv after 6 hrs by LC-MS analysis; assay type: ADME, organism-based; conditions: in vivo
[7] = test system: Hepatocyte; assay: Drug level in New Zealand White rabbit hepatocytes treated with [14C]-AZD3839 at 5 uM after 120 mins by LC-MS analysis; assay type: ADME, cell-based, Oryctolagus cuniculus; conditions: 2 h
[8] = test system: Liver; assay: Drug level in Sprague-Dawley rat aroclor 1254-induced liver S9 fraction treated with AZD3839 at 100 uM by LC-MS analysis; assay type: ADME, subcellular; conditions: s9, 100 µM
[9] = test system: Liver microsome; assay: Drug level in Sprague-Dawley rat liver microsomes treated with AZD3839 at 1 uM after 30 mins by LC-MS analysis; assay type: ADME; conditions: 0.5 h
[10] = test system: Liver microsome; assay: Drug level in human liver microsomes treated with AZD3839 at 1 uM after 30 mins by LC-MS analysis; assay type: ADME; conditions: 0.5 h
[11] = Drug level in Sprague-Dawley rat bile treated with [14C]-AZD3839 at 58 umol/kg, po after 48 hrs by LC-MS analysis; assay type: ADME, organism-based; conditions: in vivo
[12] = Drug excretion in Han Wistar rat feces at 5.8 umol/kg, iv by LC-MS analysis; assay type: ADME, organism-based; conditions: faeces, read-out: Drug excretion
[13] = Drug excretion in Han Wistar rat urine at 5.8 umol/kg, iv by LC-MS analysis; assay type: ADME, organism-based; conditions: read-out: Drug excretion
[14] = Drug metabolism in Sprague-Dawley rat bile assessed as 5-(3-(3-amino-1-(2-(difluoromethyl)pyridin-4-yl)-4-fluoro-1H-isoindol-1-yl)phenyl)-1H-imidazol-1-ol formation at 58 umol/kg, po after 48 hrs by LC-MS analysis; assay type: ADME, organism-based; conditions: in vivo
[15] = Drug metabolism in Sprague-Dawley rat hepatocytes assessed as (2S,3S,4S,5R,6S)-6-(5-(3-(3-amino-1-(2-(difluoromethyl)pyridin-4-yl)-4-fluoro-1H-isoindol-1-yl)phenyl)-1H-imidazol-1-yloxy)-3,4,5-trihydroxytetrahydro-2H-pyran-2-carboxylic acid formation at 5 uM after 120 mins by LC-MS analysis; assay type: ADME, cell-based, Hepatocyte
[16] = Drug metabolism in New Zealand White rabbit hepatocytes assessed as (S)-5-(3-(3-amino-1-(2-(difluoromethyl)pyridin-4-yl)-4-fluoro-1H-isoindol-1-yl)phenyl)pyrimidine 1-oxide formation at 5 uM after 120 mins by LC-MS analysis; assay type: ADME, cell-based, Oryctolagus cuniculus, Hepatocyte; conditions: 2 h
[17] = Drug metabolism in New Zealand White rabbit hepatocytes assessed as 1-(3-(3-amino-1-(2-(difluoromethyl)pyridin-4-yl)-4-fluoro-1H-isoindol-1-yl)phenyl)ethane-1,2-diol formation at 5 uM after 120 mins by LC-MS analysis; assay type: ADME, cell-based, Oryctolagus cuniculus, Hepatocyte; conditions: 2 h
[18] = Drug metabolism in Sprague-Dawley rat bile assessed as (2S,3S,4S,5R,6S)-6-(5-(3-(3-amino-1-(2-(difluoromethyl)pyridin-4-yl)-4-fluoro-1H-isoindol-1-yl)phenyl)-1H-imidazol-1-yloxy)-3,4,5-trihydroxytetrahydro-2H-pyran-2-carboxylic acid formation at 58 umol/kg, po after 48 hrs by LC-MS analysis; assay type: ADME, organism-based; conditions: in vivo
[19] = Drug metabolism in human hepatocytes assessed as (S)-5-(3-(3-amino-1-(2-(difluoromethyl)pyridin-4-yl)-4-fluoro-1H-isoindol-1-yl)phenyl)pyrimidine 1-oxide formation at 5 uM after 120 mins by LC-MS analysis; assay type: ADME, cell-based, Hepatocyte; conditions: 2 h
[20] = Drug metabolism in human hepatocytes assessed as (S)-4-(3-amino-4-fluoro-1-(3-(pyrimidin-5-yl)phenyl)-1H-isoindol-1-yl)-2-(difluoromethyl)pyridine 1-oxide formation at 5 uM after 120 mins by LC-MS analysis; assay type: ADME, cell-based, Hepatocyte; conditions: 2 h
[21] = Drug metabolism in human hepatocytes assessed as 1-(3-(3-amino-1-(2-(difluoromethyl)pyridin-4-yl)-4-fluoro-1H-isoindol-1-yl)phenyl)ethane-1,2-diol formation at 5 uM after 120 mins by LC-MS analysis; assay type: ADME, cell-based, Hepatocyte; conditions: 2 h
[22] = Drug metabolism in human hepatocytes assessed as 5-(3-(3-amino-1-(2-(difluoromethyl)pyridin-4-yl)-4-fluoro-1H-isoindol-1-yl)phenyl)pyrimidin-4-ol formation at 5 uM after 120 mins by LC-MS analysis; assay type: ADME, cell-based, Hepatocyte; conditions: 2 h
[23] = Drug metabolism in human hepatocytes assessed as 5-(3-(3-amino-1-(2-(difluoromethyl)pyridin-4-yl)-4-fluoro-1H-isoindol-1-yl)phenyl)pyrimidin-4(3H)-one formation at 5 uM after 120 mins by LC-MS analysis; assay type: ADME, cell-based, Hepatocyte; conditions: 2 h
[24] = Drug metabolism in human hepatocytes assessed as 5-(3-(3-amino-1-(2-(difluoromethyl)-1-oxidopyridin-4-yl)-4-fluoro-1H-isoindol-1-yl)phenyl)pyrimidine 1-oxide formation at 5 uM after 120 mins by LC-MS analysis; assay type: ADME, cell-based, Hepatocyte; conditions: 2 h
[25] = Drug metabolism in Sprague-Dawley rat hepatocytes assessed as (S)-5-(3-(3-amino-1-(2-(difluoromethyl)pyridin-4-yl)-4-fluoro-1H-isoindol-1-yl)phenyl)pyrimidine 1-oxide formation at 5 uM after 120 mins by LC-MS analysis; assay type: ADME, cell-based, Hepatocyte; conditions: 2 h
[26] = Drug metabolism in Sprague-Dawley rat hepatocytes assessed as (S)-4-(3-amino-4-fluoro-1-(3-(pyrimidin-5-yl)phenyl)-1H-isoindol-1-yl)-2-(difluoromethyl)pyridine 1-oxide formation at 5 uM after 120 mins by LC-MS analysis; assay type: ADME, cell-based, Hepatocyte; conditions: 2 h
[27] = Drug metabolism in Sprague-Dawley rat hepatocytes assessed as 5-(3-(3-amino-1-(2-(difluoromethyl)pyridin-4-yl)-4-fluoro-1H-isoindol-1-yl)phenyl)pyrimidin-4-ol formation at 5 uM after 120 mins by LC-MS analysis; assay type: ADME, cell-based, Hepatocyte; conditions: 2 h
[28] = Drug metabolism in Sprague-Dawley rat hepatocytes assessed as 5-(3-(3-amino-1-(2-(difluoromethyl)-1-oxidopyridin-4-yl)-4-fluoro-1H-isoindol-1-yl)phenyl)pyrimidine 1-oxide formation at 5 uM after 120 mins by LC-MS analysis; assay type: ADME, cell-based, Hepatocyte; conditions: 2 h
[29] = Drug metabolism in Sprague-Dawley rat aroclor 1254-induced liver S9 fraction assessed as (S)-4-(3-amino-4-fluoro-1-(3-(pyrimidin-5-yl)phenyl)-1H-isoindol-1-yl)-2-(difluoromethyl)pyridine 1-oxide formation at 100 uM by LC-MS analysis; assay type: ADME, subcellular; conditions: s9, 100 µM
[30] = Drug metabolism in Sprague-Dawley rat aroclor 1254-induced liver S9 fraction assessed as 5-(3-(3-amino-1-(2-(difluoromethyl)pyridin-4-yl)-4-fluoro-1H-isoindol-1-yl)phenyl)pyrimidin-4(3H)-one formation at 100 uM by LC-MS analysis; assay type: ADME, subcellular; conditions: s9, 100 µM
[31] = Drug metabolism in Sprague-Dawley rat aroclor 1254-induced liver S9 fraction assessed as (S)-5-(3-(3-amino-1-(2-(difluoromethyl)pyridin-4-yl)-4-fluoro-1H-isoindol-1-yl)phenyl)pyrimidine 1-oxide formation at 100 uM by LC-MS analysis; assay type: ADME, subcellular; conditions: s9, 100 µM
[32] = test system: Liver microsome; assay: Drug metabolism in human liver microsomes assessed as (S)-5-(3-(3-amino-1-(2-(difluoromethyl)pyridin-4-yl)-4-fluoro-1H-isoindol-1-yl)phenyl)pyrimidine 1-oxide formation at 1 uM after 30 mins by LC-MS analysis; assay type: ADME; conditions: 0.5 h
[33] = test system: Liver microsome; assay: Drug metabolism in human liver microsomes assessed as (S)-4-(3-amino-4-fluoro-1-(3-(pyrimidin-5-yl)phenyl)-1H-isoindol-1-yl)-2-(difluoromethyl)pyridine 1-oxide formation at 1 uM after 30 mins by LC-MS analysis; assay type: ADME; conditions: 0.5 h
[34] = test system: Liver microsome; assay: Drug metabolism in Sprague-Dawley rat liver microsomes assessed as (S)-4-(3-amino-4-fluoro-1-(3-(pyrimidin-5-yl)phenyl)-1H-isoindol-1-yl)-2-(difluoromethyl)pyridine 1-oxide formation at 1 uM after 30 mins by LC-MS analysis; assay type: ADME; conditions: 0.5 h
[35] = test system: Liver microsome; assay: Drug metabolism in Sprague-Dawley rat liver microsomes assessed as (S)-5-(3-(3-amino-1-(2-(difluoromethyl)pyridin-4-yl)-4-fluoro-1H-isoindol-1-yl)phenyl)pyrimidine 1-oxide formation at 1 uM after 30 mins by LC-MS analysis; assay type: ADME; conditions: 0.5 h
[36] = Drug excretion in Sprague-Dawley rat feces at 30 umol/kg, iv after 48 hrs by LC-MS analysis; assay type: ADME, organism-based; conditions: faeces, read-out: Drug excretion
[37] = Drug excretion in bile duct-cannulated Sprague-Dawley rat bile at 30 umol/kg, iv after 6 hrs by LC-MS analysis; assay type: ADME, organism-based; conditions: read-out: Drug excretion
[38] = Drug excretion in Sprague-Dawley rat urine at 30 umol/kg, iv after 24 hrs by LC-MS analysis; assay type: ADME, organism-based; conditions: read-out: Drug excretion

Sequence of Cytochrome P450 3A4 (P08684 whole entry): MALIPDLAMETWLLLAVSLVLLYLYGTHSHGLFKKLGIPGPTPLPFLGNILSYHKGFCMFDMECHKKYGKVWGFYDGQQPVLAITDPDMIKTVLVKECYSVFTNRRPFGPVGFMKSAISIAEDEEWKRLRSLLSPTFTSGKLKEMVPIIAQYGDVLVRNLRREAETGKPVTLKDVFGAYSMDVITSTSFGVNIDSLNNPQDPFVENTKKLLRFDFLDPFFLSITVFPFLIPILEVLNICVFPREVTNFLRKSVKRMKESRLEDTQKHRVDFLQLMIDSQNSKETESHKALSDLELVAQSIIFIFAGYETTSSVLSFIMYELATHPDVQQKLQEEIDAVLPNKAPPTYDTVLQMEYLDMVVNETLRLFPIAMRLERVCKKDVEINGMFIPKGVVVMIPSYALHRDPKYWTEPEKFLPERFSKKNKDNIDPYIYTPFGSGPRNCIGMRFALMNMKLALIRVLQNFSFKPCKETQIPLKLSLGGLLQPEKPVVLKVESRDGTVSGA

NC1=NC(c2cccc(-c3cnc[n+]([O-])c3)c2)(c2cc[n+]([O-])c(C(F)F)c2)c2cccc(F)c21 (stereo not given)
Drug metabolism [1]: metabolite_detected
Drug metabolism [2]: metabolite_detected

NC1=NC(c2cc[n+]([O-])cc2)(c2cccc(-c3cncnc3)c2)c2cccc(F)c21 (stereo not given)
Drug metabolism [3]: metabolite_detected
Drug metabolism [4]: metabolite_detected
Drug metabolism [5]: metabolite_detected
Drug metabolism [6]: metabolite_detected

NC1=N[C@@](c2cccc(-c3cnc[n+]([O-])c3)c2)(c2ccnc(C(F)F)c2)c2cccc(F)c21
Drug metabolism [1]: metabolite_detected
Drug metabolism [7]: metabolite_detected
Drug metabolism [2]: metabolite_detected
Drug metabolism [8]: metabolite_detected
Drug metabolism [9]: metabolite_detected
Drug metabolism [10]: metabolite_detected

NC1=N[C@@](c2cccc(-c3cncnc3)c2)(c2cc[n+]([O-])c(C(F)F)c2)c2cccc(F)c21
Drug metabolism [1]: metabolite_detected
Drug metabolism [2]: metabolite_detected
Drug metabolism [8]: metabolite_detected
Drug metabolism [9]: metabolite_detected
Drug metabolism [10]: metabolite_detected

NC1=NC(c2cccc(-c3cncn3O)c2)(c2ccnc(C(F)F)c2)c2cccc(F)c21 (stereo not given)
Drug metabolism [11]: metabolite_detected

NC1=NC(c2cccc(C(O)CO)c2)(c2ccnc(C(F)F)c2)c2cccc(F)c21 (stereo not given)
Drug metabolism [7]: metabolite_detected
Drug metabolism [2]: metabolite_detected

NC1=NC(c2cccc(-c3cncn3O[C@@H]3O[C@H](C(=O)O)[C@@H](O)[C@H](O)[C@H]3O)c2)(c2ccnc(C(F)F)c2)c2cccc(F)c21 (stereo not given in full)
Drug metabolism [1]: metabolite_detected
Drug metabolism [11]: metabolite_detected

NC1=N[C@](c2ccnc(C(F)F)c2)([14c]2[14cH][14cH][14cH][14c](-c3cncnc3)[14cH]2)c2cccc(F)c21.O=C(O)/C=C/C(=O)O
dose excreted [12]: > 90%
dose excreted [13]: < 1%
Drug metabolism [14]: metabolite_detected
Drug metabolism [15]: metabolite_detected
Drug metabolism [16]: metabolite_detected
Drug metabolism [17]: metabolite_detected
Drug metabolism [18]: metabolite_detected
Drug metabolism [19]: metabolite_detected
Drug metabolism [20]: metabolite_detected
Drug metabolism [21]: metabolite_detected
Drug metabolism [22]: metabolite_detected
Drug metabolism [23]: metabolite_detected
Drug metabolism [24]: metabolite_detected
Drug metabolism [25]: metabolite_detected
Drug metabolism [26]: metabolite_detected
Drug metabolism [27]: metabolite_detected
Drug metabolism [28]: metabolite_detected

NC1=NC(c2cc[n+]([O-])cc2)(c2cccc(-c3cnc[n+]([O-])c3)c2)c2cccc(F)c21 (stereo not given)
Drug metabolism [6]: metabolite_detected

NC1=N[C@@](c2cccc(-c3cncnc3)c2)(c2ccnc(C(F)F)c2)c2cccc(F)c21.O=C(O)/C=C/C(=O)O
Drug metabolism [29]: metabolite_detected
Drug metabolism [30]: metabolite_detected
Drug metabolism [31]: metabolite_detected
Drug metabolism [32]: metabolite_detected
Drug metabolism [33]: metabolite_detected
Drug metabolism [34]: metabolite_detected
Drug metabolism [35]: metabolite_detected

[3H]c1cc(-c2c([3H])nc([3H])nc2[3H])cc([C@@]2(c3cc([3H])nc([3H])c3)N=C(N)c3c(F)cccc32)c1
dose excreted at 48 h [36]: > 90%
dose excreted at 6 h [37]: 55%
dose excreted at 24 h [38]: < 10%
